In patent US9994581B2, “Bromodomain inhibitors” (AbbVie Inc., priority 2013, dated 2018) one finds Ki and EC50 data, which are given here for 20 molecules.

SMILES strings stand for the structures. Like-named read-outs stand apart in the source and are kept apart here. A value given as a limit tells only on which side of the number the result lay.

One assay has as its target BRD4 (BDI-BDII_K57-K550) (Homo sapiens, UniProt O60885). Nature of the assay: TR-FRET bromodomain binding assay. The settings on record: His-tagged tandem bromodomain, Alexa647-labeled probe; Ki calculated from IC50s, probe Kd and probe concentration. As to the method: A time-resolved fluorescence resonance energy transfer (TR-FRET) assay was used to determine the affinities of compounds of the Examples listed in Table 1 for the tandem domain of bromodomain BRD4. […] An Alexa647-labeled BET-inhibitor was used as the fluorescent probe in the assay.
TR-FRET data were normalized to the means of 24 no-compound controls (“high”) and 8 controls containing 1 μM un-labeled probe (“low”). Percent inhibition was plotted as a function of compound concentration and the data were fit with the 4 parameter logistic equation to obtain IC50s. Inhibition constants (Ki) were calculated from the IC50s, probe Kd and probe concentration. Typical Z′ values were between 0.65 and 0.75.

For assay [1], the system named is breast cancer cell line MX-1. Nature of the assay: MX-1 cell line proliferation assay (3-day, Cell Titer Glo). The class given is cell-based. The following applies: 72 hours, read-out: Cellular proliferation: EC50. As to the method:
The impact of compounds of the Examples on cancer cell proliferation was determined using the breast cancer cell line MX-1 (ATCC) in a 3-day proliferation assay and the data are reported in Table 1. […] For compound testing, MX-1 cells were plated in 96-well black bottom plates at a density of 5000 cells/well in 90 μL of culture media and incubated at 37° overnight to allow cell adhesion and spreading. Compound dilution series were prepared in DMSO via a 3-fold serial dilution from 3 mM to 0.1 μM. The DMSO dilution series were then diluted 1:100 in phosphate buffered saline, and 10 μL of the resulted solution were added to the appropriate wells of the MX-1 cell plate. The final compound concentrations in the wells were 3, 1, 0.3, 0.1, 0.03, 0.01, 0.003, 0.001, 0.0003, and 0.0001 μM, or 1, 0.3, 0.1, 0.03, 0.01, 0.003, 0.001, 0.0003, 0.0001, and 0.00003 μM.
Luminescence readings from the Cell Titer Glo assay were normalized to the DMSO treated cells and analyzed using the GraphPad Prism software with sigmoidal curve fitting to obtain EC50s.
In general terms: ATP-based viability assays read luminescence as a measure of living cells.

As usually defined, the Ki is the dissociation constant of the complex between target and ligand, obtained from inhibition or displacement. As for `CCS(=O)(=O)c1ccc2c(c1)-c1cn(C)c(=O)cc1OCCCc1ccccc1O2` [Example A-1, 16-(ethylsulfonyl)-2-methyl-7,8-dihydro-2H-dibenzo[4,5:7,8][1,6]dioxacycloundecino[3,2-c]pyridin-3(6H)-one], the Ki at BRD4 (BDI-BDII_K57-K550) was 4.58 nM. Further, the EC50 in assay [1] (Homo sapiens, MX1, MX-1 cells) turned out to be 6.89 nM.
As to `CCS(=O)(=O)c1ccc2c(c1)-c1cn(C)c(=O)cc1OCCc1ccccc1O2` [Example A-2, 3-(ethylsulfonyl)-6-methyl-10,11-dihydrodibenzo[4,5:7,8][1,6]dioxecino[3,2-c]pyridin-7(6H)-one], on BRD4 (BDI-BDII_K57-K550), the Ki was 234 nM. The EC50 in assay [1] (MX-1 cells) amounted to 709 nM.
Consider `CCS(=O)(=O)c1ccc2c(c1)-c1cn(C)c(=O)cc1OCCCCc1ccccc1O2` [Example A-4, 17-(ethylsulfonyl)-2-methyl-6,7,8,9-tetrahydrodibenzo[4,5:7,8][1,6]dioxacyclododecino[3,2-c]pyridin-3(2H)-one], for which the inhibitory constant (Ki) on BRD4 (BDI-BDII_K57-K550) was 3.07 nM. Moreover, the EC50 in assay [1] (Homo sapiens, MX1, MX-1 cells) came to 10.4 nM.
On the same counts, the results for `Cn1cc2c(cc1=O)OCCCc1cc(Cl)ccc1Oc1ccc(N)cc1-2` [Example A-7, 16-amino-10-chloro-2-methyl-7,8-dihydro-2H-dibenzo[4,5:7,8][1,6]dioxacycloundecino[3,2-c]pyridin-3(6H)-one] are 25.7 nM and 109 nM.
Turning to `Cn1cc2c(cc1=O)OCCCCc1cc(Cl)ccc1Oc1ccc(N)cc1-2` [Example A-8, 17-amino-11-chloro-2-methyl-6,7,8,9-tetrahydrodibenzo[4,5:7,8][1,6]dioxacyclododecino[3,2-c]pyridin-3(2H)-one], at BRD4 (BDI-BDII_K57-K550), the Ki was 25.2 nM.
Regarding `CCNC(=O)Nc1ccc2c(c1)-c1cn(C)c(=O)cc1OCCCc1cc(Cl)ccc1O2` [Example A-10, 1-(10-chloro-2-methyl-3-oxo-3,6,7,8-tetrahydro-2H-dibenzo[4,5:7,8][1,6]dioxacycloundecino[3,2-c]pyridin-16-yl)-3-ethylurea], the Ki on BRD4 (BDI-BDII_K57-K550) was 35.2 nM. The EC50 in assay [1] (Homo sapiens, MX1, MX-1 cells) came out at 347 nM.
On the same counts, the results for `CC(=O)Nc1ccc2c(c1)-c1cn(C)c(=O)cc1OCCCc1cc(Cl)ccc1O2` [Example A-11, N-(10-chloro-2-methyl-3-oxo-3,6,7,8-tetrahydro-2H-dibenzo[4,5:7,8][1,6]dioxacycloundecino[3,2-c]pyridin-16-yl)acetamide] are 5.37 nM and 30.6 nM.
On the same counts, the results for `CCS(=O)(=O)Nc1ccc2c(c1)-c1cn(C)c(=O)cc1OCC/C=C/Cc1cc(Cl)ccc1O2` [Example A-15, (E)-N-(12-chloro-2-methyl-3-oxo-3,6,7,10-tetrahydro-2H-dibenzo[4,5:7,8][1,6]dioxacyclotridecino[3,2-c]pyridin-18-yl)ethanesulfonamide] are 3.06 nM and 42.4 nM.
On the same counts, the results for `CCS(=O)(=O)Nc1ccc2c(c1)-c1cn(C)c(=O)cc1OCCC/C=C/c1cc(Cl)ccc1O2` [Example A-16, (E)-N-(12-chloro-2-methyl-3-oxo-3,6,7,8-tetrahydro-2H-dibenzo[4,5:7,8][1,6]dioxacyclotridecino[3,2-c]pyridin-18-yl)ethanesulfonamide] are 1.66 nM and 15.2 nM.
For `CCS(=O)(=O)Nc1ccc2c(c1)-c1cn(C)c(=O)cc1OC(C)CCCc1cc(Cl)ccc1O2` (centres unmarked) [Example A-17, N-(11-chloro-2,6-dimethyl-3-oxo-2,3,6,7,8,9-hexahydrodibenzo[4,5:7,8][1,6]dioxacyclododecino[3,2-c]pyridin-17-yl)ethanesulfonamide], at BRD4 (BDI-BDII_K57-K550), the Ki is 2.25 nM. In assay [1] (Homo sapiens, MX1, MX-1 cells), the EC50 turned out to be 7.82 nM.
On the same counts, the results for `CCS(=O)(=O)Nc1ccc2c(c1)-c1cn(C)c(=O)cc1OCC/C=C/c1cc(Cl)ccc1O2` [Example A-18, (E)-N-(11-chloro-2-methyl-3-oxo-2,3,6,7-tetrahydrodibenzo[4,5:7,8][1,6]dioxacyclododecino[3,2-c]pyridin-17-yl)ethanesulfonamide] are 4.06 nM and 8.87 nM.
On the same counts, the results for `CCS(=O)(=O)Nc1ccc2c(c1)-c1cn(C)c(=O)cc1OCCCCCc1cc(Cl)ccc1O2` [Example A-19, N-(12-chloro-2-methyl-3-oxo-3,6,7,8,9,10-hexahydro-2H-dibenzo[4,5:7,8][1,6]dioxacyclotridecino[3,2-c]pyridin-18-yl)ethanesulfonamide] are 2.45 nM and 16.2 nM.
On to `Cn1cc2c(cc1=O)OCCCCc1cc(F)cc(F)c1Oc1ccc(S(=O)(=O)C3CC3)cc1-2` [Example A-21, 17-(cyclopropylsulfonyl)-11,13-difluoro-2-methyl-6,7,8,9-tetrahydrodibenzo[4,5:7,8][1,6]dioxacyclododecino[3,2-c]pyridin-3(2H)-one], for which the Ki on BRD4 (BDI-BDII_K57-K550) is 0.88 nM. For the same molecule, in assay [1] (Homo sapiens, MX1, MX-1 cells), the EC50 was 5.71 nM.
On the same counts, the results for `CCS(=O)(=O)c1ccc2c(c1)-c1cn(C)c(=O)cc1OCCCCc1ccc(F)cc1O2` [Example A-23, 17-(ethylsulfonyl)-12-fluoro-2-methyl-6,7,8,9-tetrahydrodibenzo[4,5:7,8][1,6]dioxacyclododecino[3,2-c]pyridin-3(2H)-one] are 1.27 nM and 7.86 nM.
On the same counts, the results for `CCS(=O)(=O)c1ccc2c(c1)-c1cn(C)c(=O)cc1OCC/C=C/c1ccc(Cl)cc1O2` [Example A-24, (E)-12-chloro-17-(ethylsulfonyl)-2-methyl-6,7-dihydrodibenzo[4,5:7,8][1,6]dioxacyclododecino[3,2-c]pyridin-3(2H)-one] are 3.34 nM and 16.4 nM.
On the same counts, the results for `CCS(=O)(=O)c1ccc2c(c1)-c1cn(C)c(=O)cc1OCCCCc1ccc(Cl)cc1O2` [Example A-25, 12-chloro-17-(ethylsulfonyl)-2-methyl-6,7,8,9-tetrahydrodibenzo[4,5:7,8][1,6]dioxacyclododecino[3,2-c]pyridin-3(2H)-one] are 1.29 nM and 10.8 nM.
With `CCS(=O)(=O)Nc1ccc2c(c1)-c1cn(C)c(=O)cc1OCCCCc1ccncc1O2` [Example A-26, N-(2-methyl-3-oxo-2,3,6,7,8,9-hexahydrobenzo[4,5][1,6]dioxacyclododecino[3,2-c:7,8-c′]dipyridin-17-yl)ethanesulfonamide], on BRD4 (BDI-BDII_K57-K550), the Ki was 2.01 nM. Besides, the EC50 in assay [1] (Homo sapiens, MX1, MX-1 cells) worked out at 14.9 nM.
Consider `Cn1cc2c(cc1=O)OCCCCc1cc(Cl)ccc1Oc1ncccc1-2` [Example A-27, 11-chloro-2-methyl-6,7,8,9-tetrahydrobenzo[11,12][1,6]dioxacyclododecino[2,3-b:4,5-c′]dipyridin-3(2H)-one], for which the Ki on BRD4 (BDI-BDII_K57-K550) is 12.2 nM. The EC50 in assay [1] (Homo sapiens, MX1, MX-1 cells) turned out to be 62.8 nM.
On the same counts, the results for `Cn1cc2c(cc1=O)OCCCCc1ccncc1Oc1ccc(N)cc1-2` [Example A-28, 17-amino-2-methyl-6,7,8,9-tetrahydrobenzo[4,5][1,6]dioxacyclododecino[3,2-c:7,8-c′]dipyridin-3(2H)-one] are 85.9 nM and greater than 1000 nM.
For the molecule `Cn1cc2c(cc1=O)OCCCCc1cc(Cl)ccc1Oc1ncc(N)cc1-2` [Example A-32, 17-amino-11-chloro-2-methyl-6,7,8,9-tetrahydrobenzo[11,12][1,6]dioxacyclododecino[2,3-b:4,5-c′]dipyridin-3(2H)-one], the Ki on BRD4 (BDI-BDII_K57-K550) was 88.7 nM.
